From publication PMC5218480 (PLoS ONE, 2017)

Tested on: MV-4-11 cells
Test: Gene expression microarray analysis (Affymetrix PrimeView) and GSEA
Type: cell-based, human
Parameters: RFU PODN (11730768_x_at) / Fold change /veh PODN (11730768_x_at) / RFU LINC00158 (11744669_a_at) / Fold change /veh LINC00158 (11744669_a_at) / RFU DUSP10 (11751237_a_at) / Fold change /veh DUSP10 (11751237_a_at) / RFU ID3 (11757404_x_at) / Fold change /veh ID3 (11757404_x_at) / RFU PLEKHG5 (11737974_s_at) / Fold change /veh PLEKHG5 (11737974_s_at) / RFU LRRC4B (11730491_at) / Fold change /veh LRRC4B (11730491_at) / RFU GIMAP4 (11747438_a_at) / Fold change /veh GIMAP4 (11747438_a_at) / RFU KRT8 (11758183_x_at) / Fold change /veh KRT8 (11758183_x_at) / RFU CNN1 (11734310_a_at) / Fold change /veh CNN1 (11734310_a_at) / RFU VPS37D (11726825_at) / Fold change /veh VPS37D (11726825_at) / RFU C10orf10 (11716522_x_at) / Fold change /veh C10orf10 (11716522_x_at) / RFU KIR2DL2 /// KIR2DL4 /// KIR2DL5A /// KIR2DL5B /// KIR2DS1 /// KIR2DS2 /// KIR2DS3 /// KIR2DS4 /// KIR3DL3 /// KIR3DL3 /// KIR3DS1 (11738374_at) / Fold change /veh KIR2DL2 /// KIR2DL4 /// KIR2DL5A /// KIR2DL5B /// KIR2DS1 /// KIR2DS2 /// KIR2DS3 /// KIR2DS4 /// KIR3DL3 /// KIR3DL3 /// KIR3DS1 (11738374_at) / RFU C1QL1 (11718748_at) / Fold change /veh C1QL1 (11718748_at) / RFU TMPRSS4 (11747572_a_at) / Fold change /veh TMPRSS4 (11747572_a_at) / RFU HAMP (11756126_x_at) / Fold change /veh HAMP (11756126_x_at) / RFU RNFT2 (11725882_a_at) / Fold change /veh RNFT2 (11725882_a_at) / RFU NR4A2 (11747474_a_at) / Fold change /veh NR4A2 (11747474_a_at) / RFU ABCC12 (11746883_a_at) / Fold change /veh ABCC12 (11746883_a_at) / RFU TMEM136 (11760407_x_at) / Fold change /veh TMEM136 (11760407_x_at) / RFU CLDN22 /// WWC2 (11732394_at) / Fold change /veh CLDN22 /// WWC2 (11732394_at) / RFU HLA-DPB1 (11760878_x_at) / Fold change /veh HLA-DPB1 (11760878_x_at) / RFU SPINT1 (11716480_a_at) / Fold change /veh SPINT1 (11716480_a_at) / RFU GAP43 (11754022_s_at) / Fold change /veh GAP43 (11754022_s_at) / RFU A4GNT (11735810_at) / Fold change /veh A4GNT (11735810_at) / RFU PRB3 (11715151_x_at) / Fold change /veh PRB3 (11715151_x_at) / RFU TUBB4B (11761932_at) / Fold change /veh TUBB4B (11761932_at) / RFU CAPN14 (11732068_a_at) / Fold change /veh CAPN14 (11732068_a_at) / RFU TMCC2 (11721928_a_at) / Fold change /veh TMCC2 (11721928_a_at) / RFU IRGQ (11745062_a_at) / Fold change /veh IRGQ (11745062_a_at) / RFU FAM174B (11720279_a_at) / Fold change /veh FAM174B (11720279_a_at) / RFU TMPRSS4 (11748680_a_at) / Fold change /veh TMPRSS4 (11748680_a_at) / RFU FAM212B (11763350_a_at) / Fold change /veh FAM212B (11763350_a_at) / RFU PLEKHG5 (11743358_a_at) / Fold change /veh PLEKHG5 (11743358_a_at) / RFU ZSCAN30 (11745921_a_at) / Fold change /veh ZSCAN30 (11745921_a_at) / RFU CMKLR1 (11741424_a_at) / Fold change /veh CMKLR1 (11741424_a_at) / RFU LOC101060620 /// MAPK8IP1 (11723275_at) / Fold change /veh LOC101060620 /// MAPK8IP1 (11723275_at) / RFU SPTSSB (11747773_x_at) / Fold change /veh SPTSSB (11747773_x_at) / RFU PRSS12 (11739890_at) / Fold change /veh PRSS12 (11739890_at) / RFU BIN1 (11741810_x_at) / Fold change /veh BIN1 (11741810_x_at) / RFU WNT11 (11732464_a_at) / Fold change /veh WNT11 (11732464_a_at) / RFU C10orf10 (11716521_a_at) / Fold change /veh C10orf10 (11716521_a_at) / RFU C5orf56 (11738089_at) / Fold change /veh C5orf56 (11738089_at) / RFU CYB561 (11721691_x_at) / Fold change /veh CYB561 (11721691_x_at) / RFU ANKRD19P (11752326_a_at) / Fold change /veh ANKRD19P (11752326_a_at) / RFU OR2T12 /// OR2T33 /// OR2T8 (11738714_s_at) / Fold change /veh OR2T12 /// OR2T33 /// OR2T8 (11738714_s_at) / RFU VCAN (11748164_a_at) / Fold change /veh VCAN (11748164_a_at) / RFU JSRP1 (11732532_at) / Fold change /veh JSRP1 (11732532_at) / RFU KRTAP10-11 (11738290_x_at) / Fold change /veh KRTAP10-11 (11738290_x_at) / RFU MYO3A (11730013_a_at) / Fold change /veh MYO3A (11730013_a_at) / RFU EBF3 (11725865_a_at) / Fold change /veh EBF3 (11725865_a_at) / RFU CAMK2N1 (11719241_x_at) / Fold change /veh CAMK2N1 (11719241_x_at) / RFU C5orf56 (11738088_a_at) / Fold change /veh C5orf56 (11738088_a_at) / RFU OLFML3 (11715873_a_at) / Fold change /veh OLFML3 (11715873_a_at) / RFU LOC100653217 /// NTM (11731650_a_at) / Fold change /veh LOC100653217 /// NTM (11731650_a_at) / RFU MAPK11 (11762145_a_at) / Fold change /veh MAPK11 (11762145_a_at) / RFU FIZ1 (11724087_x_at) / Fold change /veh FIZ1 (11724087_x_at) / RFU OASL (11726364_x_at) / Fold change /veh OASL (11726364_x_at) / RFU SOX15 (11748057_x_at) / Fold change /veh SOX15 (11748057_x_at) / RFU CD79A (11719716_a_at) / Fold change /veh CD79A (11719716_a_at) / RFU HIST1H1D (11736915_at) / Fold change /veh HIST1H1D (11736915_at) / RFU CASKIN2 (11723855_a_at) / Fold change /veh CASKIN2 (11723855_a_at) / RFU LOC730098 (11760151_x_at) / Fold change /veh LOC730098 (11760151_x_at) / RFU OR4N2 (11742367_at) / Fold change /veh OR4N2 (11742367_at) / RFU PRRT2 (11749266_a_at) / Fold change /veh PRRT2 (11749266_a_at) / RFU SNX32 (11753110_a_at) / Fold change /veh SNX32 (11753110_a_at) / RFU CDHR5 (11726645_a_at) / Fold change /veh CDHR5 (11726645_a_at) / RFU RCAN1 (11760418_a_at) / Fold change /veh RCAN1 (11760418_a_at) / RFU FAM167A (11723789_a_at) / Fold change /veh FAM167A (11723789_a_at) / RFU FAM26E (11764081_at) / Fold change /veh FAM26E (11764081_at) / RFU ISYNA1 (11749810_s_at) / Fold change /veh ISYNA1 (11749810_s_at) / RFU ACY1 (11761880_at) / Fold change /veh ACY1 (11761880_at) / RFU 11764098_at / Fold change /veh 11764098_at / RFU SAMD14 (11745864_x_at) / Fold change /veh SAMD14 (11745864_x_at) / RFU NPB (11741838_a_at) / Fold change /veh NPB (11741838_a_at) / RFU TMPRSS6 (11731388_a_at) / Fold change /veh TMPRSS6 (11731388_a_at) / RFU KRTAP10-2 (11738614_at) / Fold change /veh KRTAP10-2 (11738614_at) / RFU ARHGAP8 /// PRR5-ARHGAP8 (11727945_x_at) / Fold change /veh ARHGAP8 /// PRR5-ARHGAP8 (11727945_x_at) / RFU KRTAP5-7 /// NADSYN1 (11734609_at) / Fold change /veh KRTAP5-7 /// NADSYN1 (11734609_at) / RFU RASL12 (11751679_a_at) / Fold change /veh RASL12 (11751679_a_at) / RFU CDKN2B (11736163_a_at) / Fold change /veh CDKN2B (11736163_a_at) / RFU PRF1 (11729649_at) / Fold change /veh PRF1 (11729649_at) / RFU, ZNF638 /// ZNF638-IT1 / Fold change vs veh, ZNF638 /// ZNF638-IT1 / RFU, PANK3 / Fold change vs veh, PANK3 / RFU, SH3YL1 / Fold change vs veh, SH3YL1 / RFU, ZEB2 / Fold change vs veh, ZEB2 / RFU, NRIP1 / Fold change vs veh, NRIP1 / RFU, PTTG1IP / Fold change vs veh, PTTG1IP / RFU, CAPN2 / Fold change vs veh, CAPN2 / RFU, MED14 / Fold change vs veh, MED14 / RFU, SNORA58 / Fold change vs veh, SNORA58 / RFU, C1orf63 / Fold change vs veh, C1orf63 / RFU, LRRFIP1 / Fold change vs veh, LRRFIP1 / RFU, NDUFAF7 / Fold change vs veh, NDUFAF7 / RFU, SLC12A2 / Fold change vs veh, SLC12A2 / RFU, IBTK / Fold change vs veh, IBTK / RFU, ESF1 / Fold change vs veh, ESF1 / Fold change vs veh, TMEM50B / RFU, TAOK1 / Fold change vs veh, TAOK1 / RFU, ACBD3 / Fold change vs veh, ACBD3 / RFU, TMA16 / Fold change vs veh, TMA16 / RFU, RWDD3 / Fold change vs veh, RWDD3 / RFU, BCAT1 / Fold change vs veh, BCAT1 / RFU, EDEM3 / Fold change vs veh, EDEM3 / RFU, TMEM33 / Fold change vs veh, TMEM33 / RFU, WDR75 / Fold change vs veh, WDR75 / RFU, AHCTF1 / Fold change vs veh, AHCTF1 / RFU, TFRC / Fold change vs veh, TFRC / RFU, ZDHHC17 / Fold change vs veh, ZDHHC17 / RFU, NOM1 / Fold change vs veh, NOM1 / RFU, ARL8B / Fold change vs veh, ARL8B / RFU, ZBTB11 / Fold change vs veh, ZBTB11 / RFU, TAMM41 / Fold change vs veh, TAMM41 / RFU, KIAA1704 /// LOC100996395 / Fold change vs veh, KIAA1704 /// LOC100996395 / RFU, ING1 / Fold change vs veh, ING1 / RFU, TRMT61B / Fold change vs veh, TRMT61B / RFU, FUBP3 / Fold change vs veh, FUBP3 / RFU, TP53 / Fold change vs veh, TP53 / RFU, TNKS2 / Fold change vs veh, TNKS2 / RFU, ZFP14 / Fold change vs veh, ZFP14 / RFU, ACTR2 / Fold change vs veh, ACTR2 / RFU, PPP3R1 / Fold change vs veh, PPP3R1 / RFU, PIK3R1 / Fold change vs veh, PIK3R1 / RFU, HNRNPA1 / Fold change vs veh, HNRNPA1 / RFU, RNF170 / Fold change vs veh, RNF170 / RFU, ZNF28 / Fold change vs veh, ZNF28 / RFU, RNGTT / Fold change vs veh, RNGTT / RFU, OGT / Fold change vs veh, OGT / RFU, BRD1 / Fold change vs veh, BRD1 / RFU, MARS / Fold change vs veh, MARS / RFU, ZNF655 / Fold change vs veh, ZNF655 / RFU, FAHD1 / Fold change vs veh, FAHD1 / RFU, BDP1 / Fold change vs veh, BDP1 / RFU, LRRCC1 / Fold change vs veh, LRRCC1 / RFU, ARID1A / Fold change vs veh, ARID1A / RFU, ZNF146 / Fold change vs veh, ZNF146 / RFU, ZNF330 / Fold change vs veh, ZNF330 / RFU, GPN3 / Fold change vs veh, GPN3 / RFU, C9orf123 / Fold change vs veh, C9orf123 / RFU, N4BP2L2 / Fold change vs veh, N4BP2L2 / RFU, ARFIP1 / Fold change vs veh, ARFIP1 / RFU, FAM179B / Fold change vs veh, FAM179B / RFU, BCL10 / Fold change vs veh, BCL10 / RFU, UHRF1BP1L / Fold change vs veh, UHRF1BP1L / RFU, BET1 / Fold change vs veh, BET1 / RFU, CNOT2 / Fold change vs veh, CNOT2 / RFU, ZNF268 / Fold change vs veh, ZNF268 / Fold change vs veh, ZNF507 / RFU, DGCR2 / Fold change vs veh, DGCR2 / RFU, WDSUB1 / Fold change vs veh, WDSUB1 / Fold change vs veh, HSP90B1 /// MIR3652 / RFU, ADSS / Fold change vs veh, ADSS / RFU, GK / Fold change vs veh, GK / RFU, ZNF148 / Fold change vs veh, ZNF148 / RFU, TAF9 / Fold change vs veh, TAF9 / RFU, SLC1A5 / Fold change vs veh, SLC1A5 / RFU, SLMO2 / Fold change vs veh, SLMO2 / RFU, ABCC4 / Fold change vs veh, ABCC4 / RFU, LOC101060439 /// RAP1B / Fold change vs veh, LOC101060439 /// RAP1B / RFU, RFX7 / Fold change vs veh, RFX7 / RFU, GTPBP10 / Fold change vs veh, GTPBP10 / RFU, CNEP1R1 / Fold change vs veh, CNEP1R1 / RFU, BIVM-ERCC5 /// ERCC5 / Fold change vs veh, BIVM-ERCC5 /// ERCC5 / RFU, ILF3 / Fold change vs veh, ILF3 / RFU 11762660_at / Fold change /veh 11762660_at / RFU VCAN (11757783_s_at) / Fold change /veh VCAN (11757783_s_at) / RFU DDX43 (11728927_at) / Fold change /veh DDX43 (11728927_at) / RFU KRT8 (11758188_x_at) / Fold change /veh KRT8 (11758188_x_at) / RFU NKD1 (11759106_at) / Fold change /veh NKD1 (11759106_at) / RFU SRD5A1 (11742802_a_at) / Fold change /veh SRD5A1 (11742802_a_at) / RFU TPSAB1 /// TPSB2 (11721975_s_at) / Fold change /veh TPSAB1 /// TPSB2 (11721975_s_at) / RFU GSTM3 (11746129_a_at) / Fold change /veh GSTM3 (11746129_a_at) / RFU IL23R (11737362_x_at) / Fold change /veh IL23R (11737362_x_at) / RFU TMEM51 (11727254_a_at) / Fold change /veh TMEM51 (11727254_a_at) / RFU PIWIL2 (11732686_x_at) / Fold change /veh PIWIL2 (11732686_x_at) / RFU ORM1 (11744905_x_at) / Fold change /veh ORM1 (11744905_x_at) / RFU CCDC152 (11743942_at) / Fold change /veh CCDC152 (11743942_at) / RFU ECM1 (11717891_a_at) / Fold change /veh ECM1 (11717891_a_at) / RFU IL23R (11748794_a_at) / Fold change /veh IL23R (11748794_a_at) / RFU TNFAIP8L3 (11732012_x_at) / Fold change /veh TNFAIP8L3 (11732012_x_at) / RFU MBOAT4 (11741988_at) / Fold change /veh MBOAT4 (11741988_at) / RFU 11764193_at / Fold change /veh 11764193_at / RFU TMEM53 (11763286_at) / Fold change /veh TMEM53 (11763286_at) / RFU MAGEB2 (11727129_at) / Fold change /veh MAGEB2 (11727129_at) / RFU TMEM200A (11744735_a_at) / Fold change /veh TMEM200A (11744735_a_at) / RFU CCDC152 (11751479_a_at) / Fold change /veh CCDC152 (11751479_a_at) / RFU FAM211A (11726209_a_at) / Fold change /veh FAM211A (11726209_a_at) / RFU RGS16 (11746705_a_at) / Fold change /veh RGS16 (11746705_a_at) / RFU VCAN (11755009_s_at) / Fold change /veh VCAN (11755009_s_at) / RFU RHOB (11743442_s_at) / Fold change /veh RHOB (11743442_s_at) / RFU RGS16 (11720943_a_at) / Fold change /veh RGS16 (11720943_a_at) / RFU RGS16 (11720944_at) / Fold change /veh RGS16 (11720944_at) / RFU, VPS4B / Fold change vs veh, VPS4B / RFU, CREB1 / Fold change vs veh, CREB1 / RFU, DNAJC13 / Fold change vs veh, DNAJC13 / RFU, GNAQ / Fold change vs veh, GNAQ / RFU, CDK5R1 / Fold change vs veh, CDK5R1 / RFU, ZRANB3 / Fold change vs veh, ZRANB3 / RFU, CUL4A / Fold change vs veh, CUL4A / RFU, CCNY / Fold change vs veh, CCNY / RFU, UFL1 / Fold change vs veh, UFL1 / RFU, COG3 / Fold change vs veh, COG3 / RFU, DIAPH2 / Fold change vs veh, DIAPH2 / RFU, SKA2 / Fold change vs veh, SKA2 / RFU, AFF3 / Fold change vs veh, AFF3 / RFU, LMF1 / Fold change vs veh, LMF1 / RFU, IPO11 / Fold change vs veh, IPO11 / RFU, DFFB / Fold change vs veh, DFFB / RFU, FOXP1 / Fold change vs veh, FOXP1 / RFU, CARD8 / Fold change vs veh, CARD8 / RFU, STRN3 / Fold change vs veh, STRN3 / RFU, ADK / Fold change vs veh, ADK / RFU, RASSF2 / Fold change vs veh, RASSF2 / RFU, WIPF1 / Fold change vs veh, WIPF1 / RFU, LARP1B / Fold change vs veh, LARP1B / RFU, RASA1 / Fold change vs veh, RASA1 / RFU, RB1 / Fold change vs veh, RB1 / RFU, PPFIA1 / Fold change vs veh, PPFIA1 / RFU, MAT2A / Fold change vs veh, MAT2A / RFU, CCT5 / Fold change vs veh, CCT5 / RFU, WDR92 / Fold change vs veh, WDR92 / RFU, CUX1 / Fold change vs veh, CUX1 / RFU, TTC7A / Fold change vs veh, TTC7A / RFU, TMEM135 / Fold change vs veh, TMEM135 / RFU, DEPTOR / Fold change vs veh, DEPTOR / RFU, CPM / Fold change vs veh, CPM / RFU, DNAJB6 / Fold change vs veh, DNAJB6 / RFU, CACNA2D3 / Fold change vs veh, CACNA2D3 / RFU, DTX4 / Fold change vs veh, DTX4 / RFU, TFCP2 / Fold change vs veh, TFCP2 / RFU, GMCL1 /// GMCL1P1 / Fold change vs veh, GMCL1 /// GMCL1P1 / RFU, AEBP2 / Fold change vs veh, AEBP2 / RFU, SNHG1 /// SNORD22 /// SNORD25 /// SNORD26 /// SNORD27 /// SNORD28 /// SNORD29 /// SNORD31 / Fold change vs veh, SNHG1 /// SNORD22 /// SNORD25 /// SNORD26 /// SNORD27 /// SNORD28 /// SNORD29 /// SNORD31 / Fold change (Aza/veh), C12orf56 (ProbeSet 11735607_a_at) / Fold change (ACY-1035/veh), C12orf56 (ProbeSet 11735607_a_at) / Fold change (Aza/veh), FGFR1OP (ProbeSet 11751329_s_at) / Fold change (ACY-1035/veh), FGFR1OP (ProbeSet 11751329_s_at) / Fold change (Aza/veh), VPS36 (ProbeSet 11739960_a_at) / Fold change (ACY-1035/veh), VPS36 (ProbeSet 11739960_a_at) / RFU SYPL1 (11715823_x_at) / Fold change /veh SYPL1 (11715823_x_at) / RFU IGFBP7 (11715501_s_at) / Fold change /veh IGFBP7 (11715501_s_at) / RFU REEP3 (11722064_at) / Fold change /veh REEP3 (11722064_at) / RFU IGLL1 (11728026_x_at) / Fold change /veh IGLL1 (11728026_x_at): dose or concentration left out as unconfirmed
Conditions: MV-4-11 cells, 48 hours

`Nc1ncn([C@@H]2O[C@H](CO)[C@@H](O)[C@H]2O)c(=O)n1` [azacitidine] was tested, and the “Fold change /veh A4GNT (11735810_at)” value was 0.90.
